According to patent US7069876B2, “Methods for raising pre-adult anadromous fish” (MariCal, Inc., priority 2000, dated 2006):

System: shark kidney calcium receptor (SKCaR)
Assay: FURA-2 ratio imaging fluorescence assay in HEK cells expressing SKCaR
Type: cell-based, dogfish (Squalus acanthias)
Settings: 10 mM amino acid or AA Mixture; extracellular Ca2+ 0.5–20 mM (FIG. 52)
Excerpt: Full length recombinant dogfish (Squalus acanthias) shark kidney calcium receptor ([…] NO.: 17) was expressed in human embryonic kidney […] ligated into the mammalian expression vector […] and transfected into HEK cells using standard techniques. The presence of SKCaR protein in transfected cells was verified by western blotting. Activation of SKCaR and its ability to respond to individual amino acids or mixtures thereof was quantified using a well characterized FURA-2 ratio imaging fluorescence assay where increases in intracellular Ca^2+ produced by SKCaR activation are detected and expressed as % normalized intracellular calcium response to receptor activation. Bai, M., S. et al., J. Biol. Chem., 32:19537-19545 (1996); Conigrave, A, et al., Proc. Nat. Acad. Sci. 97:4814-4819 (2000). […] Baseline extracellular Ca^2+ concentration was 0.5 mM. Aliquots of Ca^2+ were added to produce final extracellular concentrations of 2.5 mM, 5 mM, 7.5 mM, 10 mM and 20 mM Ca^2+ with changes in the fluorescence recorded.

Compound	effect on SKCaR's response to extracellular Ca2+
CC[C@H](C)[C@H](N)C(=O)O [Ile, L-Isoleucine]	increase SKCaR's response to a given Ca^2+ concentration
N[C@@H](Cc1ccccc1)C(=O)O [Phe, Phenylalanine]	increase SKCaR's response to a given Ca^2+ concentration
